From patent US20260008780A1, “SUBSTITUTED 3,4-DIHYDROISOQUINOLIN-1(2H)-ONE DERIVATIVES AND RELATED USES” (NodThera Limited, priority 2022, published 2026)
Where a name gives a salt, the structure may show the parent alone.

tested on: IL-1β release upon NLRP3 activation in peripheral blood mononuclear cells (PBMC); test: PBMC IC50 Determination Assay; format: cell-based; settings: Homo sapiens; PBMC from buffy coats, LPS 3 h, compound 30 min, then ATP (5 mM) or nigericin (10 μM) 1 h; IL-1β in media by ELISA (Protocol A) or HTRF (Protocol B)
Procedure: The compounds of the present disclosure were tested for their inhibitory activity against IL-1β release upon NLRP3 activation in peripheral blood mononuclear cells (PBMC).
Protocol A. PBMC were isolated from buffy coats by density gradient centrifugation on Histopaque-1077 (Sigma, cat no. 10771). Isolated cells were seeded into the wells of a 96-well plate and incubated for 3 h with lipopolysaccharide (LPS). Following medium exchange, the compounds of the present disclosure were added (a single compound per well) and the cells were incubated for 30 min. Next, the cells were stimulated either with ATP (5 mM) or nigericin (10 μM) for 1 h and the cell culture media from the wells were collected for further analysis.
The release of IL-1β into the media was determined by a quantitative detection of IL-1β in the media using an IL-1p enzyme-linked immunosorbent assay (ELISA) Ready-SET-Go!, eBioscience cat. No. 88-7261-88. Briefly, in a first step, high affinity binding plates (Corning, Costar 9018 or NUNC Maxisorp Cat No. 44-2404) were coated overnight at 4° C. with specific capture antibody included in the kit (anti-human IL-1β ref 14-7018-68). Subsequently, plates were blocked with blocking buffer for 1 h at room temperature (rt) and after washing with a buffer (PBS with 0.05% Tween-20) incubated with protein standard and culture media. After 2 h of incubation at rt, plates were washed and incubated with biotinylated detection antibody included in the kit (anti-human IL-1β Biotin ref. 33-7110-68) for 1 h at rt. Plates were washed and incubated with HRP-streptavidin for 30 min at rt and washed again. The signal was developed after addition of 3,3′,5,5′-tetramethylbenzidine-peroxidase (TMB) until colour appeared and the reaction was stopped by 2 M H2SO4. A microplate spectrophotometer (BioTek) was used to detect signals with 450 nm. The detection range of IL-1β ELISA was […].
Protocol B. PBMC were isolated from buffy coats by density gradient centrifugation on Histopaque-1077 (Sigma, cat no. 10771). Isolated cells were seeded into the wells (280,000 cells/well) of a 96-well plate and incubated for 3 h with lipopolysaccharide (LPS, 1 μg/mL diluted 1000× from a 1 mg/mL stock solution). The compounds of the present disclosure were added (a single compound per well) and the cells were incubated for 30 min. Next, the cells were stimulated with ATP (5 mM final concentration diluted 20× from a 100 mM stock solution) for 1 h and the cell culture media from the wells were collected for further analysis.
The release of IL-1β into the media was determined by quantitative detection of IL-1β in the media using HTRF®, CisBio cat. No. 62HIL1BPEH. Briefly, cell culture supernatant were dispensed directly into the assay plate containing antibodies labelled with the HTRF® donor and acceptor. A microplate spectrophotometer (BMG) was used to detect signals at 655 nm and 620 nm. The detection range of IL-1β HTRF® was 39-6500 μg/mL.

Row | Compound | IC50 [nM]
1 | CCc1cc2c(s1)C(=O)N(CC(=O)Nc1ncc(Cl)cc1F)CC21CC1 [Compound 57, N-(5-Chloro-3-fluoropyridin-2-yl)-2-{2′-ethyl-7′-oxo-6′,7′-dihydro-5′H-spiro[cyclopropane-1,4′-thieno[2,3-c]pyridin]-6′-yl}acetamide] | 1000 to 3000
2 | CCn1cc2c(n1)C1(CC1)CN(CC(=O)Nc1ncc(F)cn1)C2=O [Compound 7, 2-(2-Ethyl-4-oxo-spiro[6H-pyrazolo[4,3-c]pyridine-7,1′-cyclopropane]-5-yl)-N-(5-fluoropyrimidin-2-yl)acetamide] | 1000 to 3000
3 | CCc1cc2c(s1)C(=O)N(CC(=O)Nc1ccncn1)CC21CC1 [Compound 50, 2-{2′-Ethyl-7′-oxo-6′,7′-dihydro-5′H-spiro[cyclopropane-1,4′-thieno[2,3-c]pyridin]-6′-yl}-N-(pyrimidin-4-yl)acetamide] | 100 to 1000
4 | CC1CN(CC(=O)Nc2ncccn2)C(=O)c2cc(C3CC3)sc21 (stereo not shown) [Compound 70, 2-(2-Cyclopropyl-7-methyl-4-oxo-6,7-dihydrothieno[3,2-c]pyridin-5(4H)-yl)-N-(pyrimidin-2-yl)acetamide] | 3000 to 10000
5 | Cc1cc2c(s1)C(=O)N(CC(=O)Nc1ncccn1)CC21CC1 [Compound 24, 2-(2′-Methyl-7′-oxo-5′H-spiro[cyclopropane-1,4′-thieno[2,3-c]pyridin]-6′(7′H)-yl)-N-(pyrimidin-2-yl)acetamide] | 1000 to 3000
6 | CCc1cc2c(s1)C(=O)N(CC(=O)Nc1ncc(O)cn1)CC21CC1 [Compound 62, 2-{2′-Ethyl-7′-oxo-6′,7′-dihydro-5′H-spiro[cyclopropane-1,4′-thieno[2,3-c]pyridin]-6′-yl}-N-(5-hydroxypyrimidin-2-yl)acetamide] | 100 to 1000
7 | CC(C)c1nc2c(n1C)C(=O)N(CC(=O)Nc1ncccn1)CC21CC1 [Compound 21] | 10000 to 50000
8 | Cc1nc2c(cc3n2C(C)CN(CC(=O)Nc2ncccn2)C3=O)s1 (stereo not shown) [Compound 41] | 10000 to 50000
9 | CCc1cc2c(s1)C(=O)N(CC(=O)Nc1nccc(=O)[nH]1)CC21CC1 [Compound 51, 2-{2′-Ethyl-7′-oxo-6′,7′-dihydro-5′H-spiro[cyclopropane-1,4′-thieno[2,3-c]pyridin]-6′-yl}-N-(6-oxo-1,6-dihydropyrimidin-2-yl)acetamide] | 3000 to 10000
10 | Cc1nc(NC(=O)CN2CC3(CC3)n3c(cc4sc(Cl)cc43)C2=O)ns1 [Compound 5, 2-(4-Chloro-9-oxo-spiro[5-thia-1,10-diazatricyclo[6.4.0.0^2,6]dodeca-2(6),3,7-triene-12,1′-cyclopropane]-10-yl)-N-(5-methyl-1,2,4-thiadiazol-3-yl)acetamide] | 1000 to 3000
11 | C[C@]1(O)C[C@@H](NC(=O)CN2CC3(CC3)n3c(cc4sc(Cl)cc43)C2=O)C1 [Compound 2, cis-2-(4-Chloro-9-oxo-spiro[5-thia-1,10-diazatricyclo[6.4.0.0^2.6]dodeca-2(6),3,7-triene-12,1′-cyclopropane]-10-yl)-N-(3-hydroxy-3-methylcyclobutyl) acetamide] | 1000 to 3000
12 | O=C(CN1CC2(CC2)n2c(cc3sc(Cl)cc32)C1=O)Nc1ncccn1 [Compound 3, 2-(4-Chloro-9-oxo-spiro[5-thia-1,10-diazatricyclo[6.4.0.02,6]dodeca-2(6),3,7-triene-12,1′-cyclopropane]-10-yl)-N-pyrimidin-2-yl-acetamide] | 100 to 1000
13 | CCOC(=O)c1cnc(NC(=O)CN2CC3(CC3)c3nc(C4CC4)sc3C2=O)nc1 [Compound 16, Ethyl 2-[[2-(2-cyclopropyl-4-oxo-spiro[6H-thiazolo[5,4-c]pyridine-7,1′-cyclopropane]-5-yl)acetyl]amino]pyrimidine-5-carboxylate] | 1000 to 3000
14 | CCc1cc2c(s1)C(=O)N(CC(=O)Nc1ccc3[nH]c(=O)n(C)c3c1)CC21CC1 [Compound 49, 2-{2′-Ethyl-7′-oxo-6′,7′-dihydro-5′H-spiro[cyclopropane-1,4′-thieno[2,3-c]pyridin]-6′-yl}-N-(3-methyl-2-oxo-2,3-dihydro-1H-1,3-benzodiazol-5-yl)acetamide] | 3000 to 10000
15 | CC(C)c1nc2c(s1)C(=O)N(CC(=O)Nc1ncccn1)CC21CC1 [Compound 12, 2-(2-Isopropyl-4-oxo-spiro[6H-thiazolo[5,4-c]pyridine-7,1′-cyclopropane]-5-yl)-N-pyrimidin-2-yl-acetamide] | 3000 to 10000
16 | CC1Cn2cccc2C(=O)N1CC(=O)N[C@@H]1CCCN(C2CC2)C1 (stereo partly drawn) [Compound 1, N-[(3R)-1-Cyclopropyl-3-piperidyl]-2-(3-methyl-1-oxo-3,4-dihydropyrrolo[1,2-a]pyrazin-2-yl)acetamide hydrochloride] | 3000 to 10000
17 | CC(C)c1cc2c([nH]1)C(=O)N(CC(=O)Nc1ncccn1)CC21CC1 [Compound 19, 2-(2′-Isopropyl-7′-oxo-1′,7′-dihydrospiro[cyclopropane-1,4′-pyrrolo[2,3-c]pyridin]-6′(5′H)-yl)-N-(pyrimidin-2-yl)acetamide] | 1000 to 3000
18 | CC(C)c1cc2c(n1C)C(=O)N(CC(=O)Nc1ncccn1)CC21CC1 [Compound 20, 2-(2′-Isopropyl-1′-methyl-7′-oxo-1′,7′-dihydrospiro[cyclopropane-1,4′-pyrrolo[2,3-c]pyridin]-6′(5′H)-yl)-N-(pyrimidin-2-yl)acetamide] | 1000 to 3000
19 | CCc1cc2c(o1)C1(CC1)CN(CC(=O)Nc1ncccn1)C2=O [Compound 18, 2-(2′-Ethyl-4′-oxo-4′H-spiro[cyclopropane-1,7′-furo[3,2-c]pyridin]-5′(6′H)-yl)-N-(pyrimidin-2-yl)acetamide] | 100 to 1000
20 | CCc1cc2c(s1)C(=O)N(CC(=O)Nc1ncc(-n3cccn3)cn1)CC21CC1 [Compound 52, 2-{2′-Ethyl-7′-oxo-6′,7′-dihydro-5′H-spiro[cyclopropane-1,4′-thieno[2,3-c]pyridin]-6′-yl}-N-[5-(1H-pyrazol-1-yl)pyrimidin-2-yl]acetamide] | 1000 to 3000
21 | C[C@@H]1CN(CC(=O)Nc2ncccn2)C(=O)c2cc3sc(Cl)cc3n21 (racemic) [Compound 9, N-Pyrimidin-2-yl-2-[rac-(12R)-4-chloro-12-methyl-9-oxo-5-thia-1,10-diazatricyclo[6.4.0.02,6]dodeca-2(6),3,7-trien-10-yl]acetamide] | 1000 to 3000
22 | CCc1cc2c(s1)C(=O)N(CC(=O)Nc1ncc3c(n1)[nH]c(=O)n3C)CC21CC1 [Compound 71, 2-(2′-Ethyl-7′-oxo-5′H-spiro[cyclopropane-1,4′-thieno[2,3-c]pyridin]-6′(7′H)-yl)-N-(7-methyl-8-oxo-8,9-dihydro-7H-purin-2-yl)acetamide] | 1000 to 3000
23 | CCc1cc2c(s1)C(=O)N(CC(=O)Nc1ncc(N)cn1)CC21CC1 [Compound 60, N-(5-Aminopyrimidin-2-yl)-2-{2′-ethyl-7′-oxo-6′,7′-dihydro-5′H-spiro[cyclopropane-1,4′-thieno[2,3-c]pyridin]-6′-yl}acetamide] | 100 to 1000
24 | O=C(CN1CC2(CC2)n2c(cc3sc(Cl)cc32)C1=O)Nc1ncc(F)cn1 [Compound 6, 2-(4-Chloro-9-oxo-spiro[5-thia-1,10-diazatricyclo[6.4.0.0^2.6]dodeca-2(6),3,7-triene-12,1′-cyclopropane]-10-yl)-N-(5-fluoropyrimidin-2-yl)acetamide] | < 100
25 | O=C(CN1CC2(CC2)n2c(cc3sc(Cl)cc32)C1=O)NC1CC2(COC2)C1 [Compound 4] | 1000 to 3000
26 | CCc1cc2c(s1)C(=O)N(CC(=O)Nc1ncc(Cl)cn1)CC21CC1 [Compound 54, N-(5-Chloropyrimidin-2-yl)-2-{2′-ethyl-7′-oxo-6′,7′-dihydro-5′H-spiro[cyclopropane-1,4′-thieno[2,3-c]pyridin]-6′-yl}acetamide] | 100 to 1000
27 | C[C@@H]1CN(CC(=O)Nc2ncccn2)C(=O)c2sc(C3CC3)nc21 [Compound 77] | 1000 to 3000
28 | CCc1cc2c(s1)C(=O)N(CC(=O)Nc1ccc(OC)nc1)CC21CC1 [Compound 48, 2-{2′-Ethyl-7′-oxo-6′,7′-dihydro-5′H-spiro[cyclopropane-1,4′-thieno[2,3-c]pyridin]-6′-yl}-N-(6-methoxypyridin-3-yl)acetamide] | 3000 to 10000
